# Assay results: PubChem BioAssay AID328 (DTP/NCI, 2004)
# Several values for one entry are separate records, joined by “and”; a condition that tells them apart may be missing. Identical values can stand only once. Inconclusive results and toxic doses are left out.
# Tested on: BDF1 mice, P388 leukemia ip, median survival T/C
# Test: NCI In Vivo Anticancer Drug Screen. Data for tumor model P388 Leukemia (intraperitoneal) in B6D2F1 (BDF1) mice
# Conditions: endpoint: median survival time, higher = longer survival
# Procedure: The antitumor activity of compounds was measured in mice bearing transplantable tumors. Survival or tumor size were measured and the results are expressed as the measurement made in the treated group (T) divided by the measurement made in the vehicle treated control group (C). The tumor model used in this assay is P388 Leukemia (intraperitoneal) in B6D2F1 (BDF1) mice
# [1] = dose: 6.25 mg/kg/injection, schedule: Q01DX009 (ip), vehicle: saline
# [2] = dose: 100.0 mg/kg/injection, schedule: Q04DX003 (ip), vehicle: saline with Tween-80
# [3] = dose: 200.0 mg/kg/injection, schedule: Q04DX003 (ip), vehicle: saline with Tween-80
# [4] = dose: 400.0 mg/kg/injection, schedule: Q04DX003 (ip), vehicle: saline with Tween-80
# [5] = dose: 400.0 mg/kg/injection, schedule: Q01DX009 (ip), vehicle: saline with Tween-80
# [6] = dose: 25.0 mg/kg/injection, schedule: Q01DX009 (ip), vehicle: saline with Tween-80
# [7] = dose: 50.0 mg/kg/injection, schedule: Q01DX009 (ip), vehicle: saline with Tween-80
# [8] = dose: 100.0 mg/kg/injection, schedule: Q01DX009 (ip), vehicle: saline
# [9] = dose: 100.0 mg/kg/injection, schedule: Q04DX003 (ip), vehicle: saline
# [10] = dose: 200.0 mg/kg/injection, schedule: Q01DX009 (ip), vehicle: saline
# [11] = dose: 400.0 mg/kg/injection, schedule: Q01DX009 (ip), vehicle: saline
# [12] = dose: 100.0 mg/kg/injection, schedule: Q01DX009 (ip), vehicle: saline with Tween-80
# [13] = dose: 200.0 mg/kg/injection, schedule: Q01DX009 (ip), vehicle: saline with Tween-80
# [14] = dose: 12.5 mg/kg/injection, schedule: Q01DX009 (ip), vehicle: saline
# [15] = dose: 25.0 mg/kg/injection, schedule: Q01DX009 (ip), vehicle: saline
# [16] = dose: 50.0 mg/kg/injection, schedule: Q01DX009 (ip), vehicle: saline
structure (smiles),measurement,setting,value
O=[N+]([O-])c1ccc2scc3c4ccccc4nc-3c2c1,T/C,[1],103 % of control
II,T/C,"dose: 12.0 mg/kg/injection, schedule: Q01DX010 (ip), vehicle: acetone",114 % of control
same,T/C,"dose: 25.0 mg/kg/injection, schedule: Q01DX010 (ip), vehicle: acetone",96 % of control
same,T/C,"dose: 50.0 mg/kg/injection, schedule: Q01DX010 (ip), vehicle: acetone",110 % of control
COc1ccc(C(=O)CCCCl)c(OC)c1,T/C,[2],100 % of control
same,T/C,[3],100 % of control
same,T/C,[4],90 % of control
COc1cc([C@@H]2c3cc4c(cc3[C@H](SC(=N)N)[C@H]3COC(=O)[C@H]23)OCO4)cc(OC)c1OC,T/C,"dose: 1.4 mg/kg/injection, schedule: Q01DX010 (ip), vehicle: carboxymethylcellulose (CMC)",105 % of control
same,T/C,"dose: 2.8 mg/kg/injection, schedule: Q01DX010 (ip), vehicle: carboxymethylcellulose (CMC)",100 % of control
same,T/C,"dose: 5.6 mg/kg/injection, schedule: Q01DX010 (ip), vehicle: carboxymethylcellulose (CMC)",110 % of control
same,T/C,"dose: 18.0 mg/kg/injection, schedule: Q01DX009 (ip), vehicle: Klucel (hydroxypropylcellulose) (HPC)",152 % of control
same,T/C,"dose: 27.0 mg/kg/injection, schedule: Q01DX009 (ip), vehicle: Klucel (hydroxypropylcellulose) (HPC)",171 % of control
CNC(=S)N/N=C/c1ccc([N+](=O)[O-])s1,T/C,[5],94 % of control
CN1CC=Nc2c1nc(N)[nH]c2=O,T/C,"dose: 12.5 mg/kg/injection, schedule: Q01DX009 (ip), vehicle: saline with Tween-80",109 % of control
same,T/C,[6],107 % of control
same,T/C,[7],102 % of control
CCOC(=O)CSC(=S)SCC(=O)OCC,T/C,[8],100 % of control
same,T/C,[9],90 % of control
same,T/C,[10],105 % of control
same,T/C,"dose: 200.0 mg/kg/injection, schedule: Q04DX003 (ip), vehicle: saline",100 % of control
same,T/C,[11],100 % of control
same,T/C,"dose: 400.0 mg/kg/injection, schedule: Q04DX003 (ip), vehicle: saline",100 % of control
Cc1c2cnccc2c(C)c2c1c1ccccc1n2CCNCCO,T/C,"dose: 0.44 mg/kg/injection, schedule: Q04DX003 (ip), vehicle: saline",118 % of control
same,T/C,"dose: 1.5 mg/kg/injection, schedule: Q04DX003 (ip), vehicle: saline",109 % of control
same,T/C,[2],118 % of control
same,T/C,"dose: 150.0 mg/kg/injection, schedule: Q04DX003 (ip), vehicle: saline with Tween-80",90 % of control
O=C(Nc1ccc(C2=NCCN2)cc1)c1ccc(C(=O)Nc2ccc(C3=NCCN3)cc2)c([N+](=O)[O-])c1,T/C,"dose: 6.0 mg/kg/injection, schedule: Q01DX010 (ip), vehicle: saline",163 % of control
same,T/C,"dose: 8.0 mg/kg/injection, schedule: Q01DX010 (ip), vehicle: saline",168 % of control
same,T/C,"dose: 12.0 mg/kg/injection, schedule: Q01DX010 (ip), vehicle: saline",113 % of control
C[NH-].C[NH-].O=C(O)C(=O)O.[Pt+2],T/C,"dose: 2.0 mg/kg/injection, schedule: Q04DX003 (ip), vehicle: other",158 % of control
same,T/C,"dose: 3.0 mg/kg/injection, schedule: Q04DX003 (ip), vehicle: other",200 % of control
same,T/C,"dose: 4.4 mg/kg/injection, schedule: Q04DX003 (ip), vehicle: other",154 % of control
same,T/C,"dose: 4.5 mg/kg/injection, schedule: Q04DX003 (ip), vehicle: other",166 % of control
same,T/C,"dose: 6.7 mg/kg/injection, schedule: Q04DX003 (ip), vehicle: other",186 % of control
same,T/C,"dose: 10.0 mg/kg/injection, schedule: Q04DX003 (ip), vehicle: other",190 % of control
same,T/C,"dose: 10.5 mg/kg/injection, schedule: Q04DX003 (ip), vehicle: other",170 % of control
same,T/C,"dose: 12.5 mg/kg/injection, schedule: Q04DX003 (ip), vehicle: other",208 % of control
same,T/C,"dose: 16.0 mg/kg/injection, schedule: Q04DX003 (ip), vehicle: other",208 % of control
same,T/C,"dose: 25.0 mg/kg/injection, schedule: Q04DX003 (ip), vehicle: other",250 % of control and 254 % of control and 183 % of control
same,T/C,"dose: 100.0 mg/kg/injection, schedule: Q04DX003 (ip), vehicle: other",90 % of control
COC(=O)/C=C1\Sc2ccc(Cl)cc2NC1=O,T/C,[7],93 % of control
same,T/C,[12],86 % of control
same,T/C,[13],93 % of control
O=C1NC(=O)C(c2ccccc2)(c2ccccc2)N1CCS,T/C,[14],96 % of control and 104 % of control
same,T/C,[15],99 % of control and 104 % of control
same,T/C,[16],93 % of control
same,T/C,[8],89 % of control and 99 % of control
same,T/C,[10],112 % of control and 113 % of control
Nc1ccccc1/C=C(\C(=O)O)c1cccc(Cl)c1,T/C,"dose: 100.0 mg/kg/injection, schedule: Q04DX003 (ip), vehicle: Klucel (hydroxypropylcellulose) (HPC)",95 % of control
same,T/C,"dose: 200.0 mg/kg/injection, schedule: Q04DX003 (ip), vehicle: Klucel (hydroxypropylcellulose) (HPC)",104 % of control
same,T/C,"dose: 400.0 mg/kg/injection, schedule: Q04DX003 (ip), vehicle: Klucel (hydroxypropylcellulose) (HPC)",100 % of control
O=C(O)C1OC1C(=O)O (stereo not drawn),T/C,"dose: 75.0 mg/kg/injection, schedule: Q01DX009 (ip), vehicle: saline",90 % of control
same,T/C,"dose: 150.0 mg/kg/injection, schedule: Q01DX009 (ip), vehicle: saline",100 % of control
same,T/C,"dose: 300.0 mg/kg/injection, schedule: Q01DX009 (ip), vehicle: saline",100 % of control
NC(=NCCCC(NC(=O)OCc1ccccc1)C(=O)NC(Cc1ccccc1)C(=O)OCc1ccccc1)NC(=O)OCc1ccccc1 (stereo not drawn),T/C,"dose: 12.5 mg/kg/injection, schedule: Q01DX005 (ip), vehicle: saline with Tween-80",92 % of control
same,T/C,"dose: 25.0 mg/kg/injection, schedule: Q01DX005 (ip), vehicle: saline with Tween-80",92 % of control
same,T/C,"dose: 50.0 mg/kg/injection, schedule: Q01DX005 (ip), vehicle: saline with Tween-80",90 % of control and 101 % of control
same,T/C,"dose: 100.0 mg/kg/injection, schedule: Q01DX005 (ip), vehicle: saline with Tween-80",97 % of control
same,T/C,"dose: 200.0 mg/kg/injection, schedule: Q01DX005 (ip), vehicle: saline with Tween-80",107 % of control
Cc1ccc2c(c1)C(c1ccccc1)(c1ccccc1)OC2=O,T/C,[12],100 % of control
same,T/C,[13],90 % of control
same,T/C,[5],100 % of control
CC=NC(C[S-])C(=O)O.CC=NC(C[S-])C(=O)O.[Fe+2] (stereo not drawn),T/C,[7],110 % of control
same,T/C,[12],100 % of control and 105 % of control
same,T/C,[13],100 % of control and 104 % of control
N#CC(/C=C/c1ccccc1)Nc1ccccc1 (stereo not drawn),T/C,[2],104 % of control
same,T/C,[3],100 % of control
same,T/C,[4],100 % of control
CCOC(=O)CCC#N,T/C,[16],100 % of control
same,T/C,[8],116 % of control
same,T/C,[11],99 % of control
CN(C)CC/C=C1\c2ccccc2Sc2ccc(C(F)(F)F)cc21,T/C,"dose: 9.2 mg/kg/injection, schedule: Q04DX003 (ip), vehicle: saline",112 % of control and 113 % of control
same,T/C,"dose: 21.0 mg/kg/injection, schedule: Q04DX003 (ip), vehicle: saline",116 % of control
same,T/C,"dose: 29.0 mg/kg/injection, schedule: Q04DX003 (ip), vehicle: saline",100 % of control
same,T/C,"dose: 65.0 mg/kg/injection, schedule: Q01DX001 (ip), vehicle: saline",122 % of control
CN(C)C1CCc2ccccc2C1OC(=O)/C=C/c1ccccc1 (stereo not drawn),T/C,[6],100 % of control
same,T/C,[7],102 % of control
same,T/C,[12],102 % of control
O=P(N1CC=CCC1)(N1CC1)N1CC1,T/C,"dose: 2.2 mg/kg/injection, schedule: Q01DX009 (ip), vehicle: saline",115 % of control
same,T/C,"dose: 3.3 mg/kg/injection, schedule: Q01DX009 (ip), vehicle: saline",105 % of control
same,T/C,"dose: 5.0 mg/kg/injection, schedule: Q01DX009 (ip), vehicle: saline",161 % of control
same,T/C,[1],190 % of control
same,T/C,"dose: 7.5 mg/kg/injection, schedule: Q01DX009 (ip), vehicle: saline",195 % of control
same,T/C,[14],245 % of control and 191 % of control
same,T/C,[15],87 % of control and 90 % of control
CN1CCC(C(O)c2ccccc2)CC1 (stereo not drawn),T/C,"dose: 100.0 mg/kg/injection, schedule: Q01DX001 (ip), vehicle: Klucel (hydroxypropylcellulose) (HPC)",105 % of control
same,T/C,"dose: 200.0 mg/kg/injection, schedule: Q01DX001 (ip), vehicle: Klucel (hydroxypropylcellulose) (HPC)",105 % of control
NC(N)=N/N=C/C=N/N=C(N)N,T/C,[9],100 % of control
